Source: US20260035339A1, “TETRAHYDRONAPHTHALENE DERIVATIVE” (ATRANSEN PHARMA LTD., priority 2022, published 2026)

How the values were obtained:
[1] = test system: Human breast cancer cells MCF7; assay: BNCT-enhancing effect by L-BPA confinement using cultured cells (colony formation after neutron irradiation); format: cell-based; conditions: MCF7 loaded with 100 μM L-[10B]BPA, not treated with Example 1-1; neutron rays 5 MW for 4 minutes
Description: Human breast cancer cells MCF7 were plate-cultured in an RPMI medium for 48 hours, then replaced with an RPMI medium containing 100 μM of L-[10B]BPA, and cultured for 15 minutes to allow the L-[10B]BPA to be taken up in the cells. After washing with HBSS, the cells were cultured in an RPMI medium for 60 minutes, and after further washing with HBSS, the cells were peeled off and stored in HBSS at room temperature for 1.5 hours ((−) in FIG. 3A). L-BPA was taken up in the cells, washed with HBSS and then cultured in an RPMI medium containing the compound of Example 1-1 (10 μM) obtained in the present invention for 60 minutes, and after further washing with HBSS, the cells were peeled off and stored in HBSS at room temperature for 1.5 hours ((+) in FIG. 3A). The cells were cultured in an RPMI medium containing no L-[10B]BPA for 15 minutes, and after washing with HBSS, the cells were peeled off and stored in HBSS at room temperature for 1.5 hours ((No BPA Hot control) in FIG. 3A). These three cell samples were irradiated with neutron rays (5 MW for 4 minutes). After irradiation, in order to measure viable cells, the cells were plate-cultured and the number of colonies generated after 2 weeks was measured. The number of viable cells was evaluated as surviving fraction (%) (FIG. 3A).

[2] = test system: Mouse triple negative breast cancer cells 4T1 and mouse colorectal cancer cells CT26; assay: BNCT-enhancing effect using mouse allograft tumor model; format: in vivo, BALB/c mice; conditions: Group 3: 400 mg/kg L-[10B]BPA i.v., solvent instead of Example 1-45; neutron rays 5 MW for 30 minutes
Description: Mouse triple negative breast cancer cells 4T1 and mouse colorectal cancer cells CT26 were plate-cultured and then transplanted subcutaneously into the lower limbs of BALB/c mice. After 1 week, 400 mg/kg of L-[10B]BPA or a solvent as a control was intravenously administered through the tail vein. In Group 1, the compound of Example 1-45 was administered intravenously at a dose of 25 mg/kg after 1 hour and 1.5 hours from the administration of L-[10B]BPA. In Group 2, the solvent was administered instead of L-[10B]BPA, and after 1 hour and 1.5 hours, the compound of Example 1-45 obtained in the present invention was administered intravenously at a dose of 25 mg/kg. In Group 3, the solvent was administered intravenously instead of the compound of Example 1-45 after 1 hour and 1.5 hours from the administration of L-[10B]BPA. For Groups 1, 2, and 3, the lower limbs were irradiated with neutron rays under anesthesia after 2.5 hours from L-[10B]BPA administration or solvent administration as the control (5 MW for 30 minutes). The tumors were excised after 11 days from irradiation and the volumes thereof were compared.

N[C@@H](Cc1ccc(B(O)O)cc1)C(=O)O [L-[10B]BPA, L-boronophenylalanine, reference compound]
cell death caused by neutron irradiation, L-[10B]BPA without compound treatment [1]: about No BPA Hot control
BNCT effect of L-[10B]BPA without compound (tumor volume 11 days after irradiation) [2]: no BNCT effect was obtained
